Patent US10053675B2, “Hydroxyphenylpyruvate dioxygenase polypeptides and methods of use” (SYNGENTA PARTICIPATIONS AG, priority 2009, dated 2018)
Where “and” joins values, the source holds several entries; their conditions need not be identical. Equal entries are not always repeated. Where two headings read alike, the source gives them in different places.

Assays:
[1] = molecular target: T1, Avena-derived HPPD SEQ ID NO: 1 (Avena sativa, UniProt A0ACD5V6K6, DEL109-109); assay: biochemical; format: binding; conditions: for koff / Off rate k1, individual experiments: direct or indirect radiochemical method
Description: On rates (governed by an association rate constant, kon) for the formation of the enzyme:inhibitor complexes, EI and off rates (governed by a dissociation rate constant, koff) were determined by methods known in the art and essentially as described in Hawkes et al. (2001) Proc. Bright. Crop. Prot. Conf. Weeds, 2:563-568 and in PCT Publication No. WO 02/46387).
Off rates (k1 in the scheme below) were derived from exchange rate studies where either the test inhibitor, I, or its exchange partner, J were radiolabelled and the data fit according to the scheme below. As noted in Hawkes et al. (2001) Proc. Bright. Crop. Prot. Conf.
After 30 minutes the exchange reaction was initiated with addition of 100 μl 1 mM ‘cold’ structure A with thorough mixing, and, immediately, 150 μl were withdrawn and loaded onto a NAP5 column, the protein exchanged into 50 mM BisTrisPropane buffer at pH 7.0 containing 0.1M KCl by rapid (<2 min) chromatography down a NAP5 G25 Sephadex® column (GE Healthcare Ltd, Buckinghamshire UK) and the amount of ^14C bound to protein measured by Optiphase scintillant using a Tri-Carb® 2900TR scintillation counter (Perkin Elmer, Wellesley, Mass.). Further aliquots were removed and measured in the same way at various times over minutes or hours as required in order to determine the exchange kinetics.
In this case, off rates were determined by preincubating ˜200 pmoles HPPD in reaction buffer (50 mM BTP pH 7, 25 mM Na ascorbate, 4 μg/ml bovine catalase, and 10% glycerol) containing ˜1.0 nmoles ^14C inhibitor at 25° C. in a total assay volume of 1.3 ml. After 30 minutes the reaction vessel was transferred to ice. After a further 10 minutes at ice temperature the exchange reaction was initiated by addition of 100 μl 1 mM Structure A, with thorough mixing, and 150 μl was withdrawn, loaded and quickly exchanged down a NAP5 column in a cold room at ˜5-8° C. in order to quantify the amount of radiolabel remaining bound to the protein at various time from the start of exchange at ice temperature.
Off rates (k1) of HPPD inhibitors that are not readily available radiolabelled or that present other measurement problems (for example high levels of background non-specific protein-binding which can be measured as radiolabel binding that persists in the presence of high concentrations of ‘cold’ inhibitor) may be measured indirectly. […] Exemplary methods are also described in PCT Publication No. WO 02/46387.

[2] = tested on: tobacco plants expressing wheat HPPD (A7WK82); assay: Glasshouse spray test on transgenic tobacco expressing wheat HPPD; format: in vivo; conditions: 14 DAT
Description: (§1) The CTP/HPPD encoding nucleotide sequence is edited by PCR (or initially synthesized) to include a 5′ XhoI site, a TMV omega enhancer (SEQ ID NO: 86) and a 3′ KpnI site (and to remove any such internal sites).
For example, a master plate of Agrobacterium tumefaciens containing the HPPD expressing binary vector is used to inoculate 10 ml LB (L broth) containing 100 mg/l rifampicin plus 50 mg/l kanamycin using a single bacterial colony. This is incubated overnight at 28° C. shaking at 200 rpm. This entire overnight culture is used to inoculate a 50 ml volume of LB containing the same antibiotics. Again this is cultured overnight at 28° C. shaking at 200 rpm. The Agrobacterium cells are pelleted by centrifuging at 3000 rpm for 15 minutes and then resuspended in MS (Murashige and Skoog) medium containing 30 g/l sucrose, pH 5.9 to an OD (600 nM)=0.6. This suspension is dispensed in 25 ml aliquots into petri dishes.
Clonally micro-propagated tobacco shoot cultures are used to excise young (not yet fully expanded) leaves. The mid rib and outer leaf margins are removed and discarded, and the remaining lamina cut into 1 cm squares. These are transferred to the Agrobacterium suspension for 20 minutes. […]
(§2) As shoots start to regenerate from the callusing leaf explants, these are removed to Shoot elongation medium (MS medium, 30 g/l sucrose, 8 g/l plantagar, 100 mg/l kanamycin, 200 mg/l timentin, 250 mg/l carbenicillin, pH 5.9). Stable transgenic plants readily root within 2 weeks. […]
(§3) Putative transgenic plants that are rooting and showing vigorous shoot growth on the medium incorporating kanamycin are analysed by PCR using primers that amplified a 500 bp fragment within the HPPD transgene. […]
(§4) A sub-set of about 30 plants were then selected on the basis of similar size from each population for spray testing. […] Plants were assessed for damage and scored at 14 days after treatment (DAT). […]

[3] = molecular target: T1, Avena-derived HPPD SEQ ID NO: 1; assay: On rate (kon, k2) of enzyme:inhibitor complex formation; format: binding; conditions: read-out: On rate, activity based method
[4] = tested on: tobacco plants expressing Arabidopsis HPPD (SEQ ID NO: 13); assay: Glasshouse spray test on transgenic tobacco expressing Arabidopsis HPPD; format: in vivo; conditions: 600 g/ha isoxaflutole, 14 DAT
Description: as §1
(§5) For example, a master plate of Agrobacterium tumefaciens containing the HPPD expressing binary vector is used to inoculate 10 ml LB (L broth) containing 100 mg/l rifampicin plus 50 mg/l kanamycin using a single bacterial colony. This is incubated overnight at 28° C. shaking at 200 rpm. This entire overnight culture is used to inoculate a 50 ml volume of LB containing the same antibiotics. Again this is cultured overnight at 28° C. shaking at 200 rpm. […]
as §2, §3, §4

[5] = tested on: tobacco plants expressing Pseudomonas fluorescens HPPD (SEQ ID NO: 14); assay: Glasshouse spray test on transgenic tobacco expressing Pseudomonas HPPD; format: in vivo; conditions: 600 g/ha isoxaflutole, 14 DAT
Description: as §1, §5, §2, §3, §4

[6] = molecular target: T1, Avena-derived HPPD SEQ ID NO: 1; assay: HPPD assay for KmHPP and kcat (HPLC/UV quantitation of homogentisate); format: biochemical; conditions: 25° C.
Description: The assay solution was transferred to Chromacol 03-CVG HPLC vials, sealed and the amount of homogentisate formed in a 40 μl aliquot determined by injection onto a reverse phase Aqua C18 5μ 75×4.6 mm HPLC column running 5.5% acetonitrile 0.1% TFA (Buffer A) at 1.5 ml/min. The column was eluted at 1.5 ml/minute using a 2 minute wash in buffer A, followed by a 2 minute wash in a 30/70 mixture of buffer A and 100% acetonitrile, and a further 3.5 minute wash in buffer A. The elution of homogentisate was monitored by UV at 292 nm and the amount formed in each reaction quantified by comparison with a standard calibration curve.
Km and Vmax values were determined (for example FIG. 1) using a non linear least squares fit using Grafit 4™ software (Erithacus Software, Middlesex, UK). Kcat values were determined by dividing the maximum rate, Vmax expressed in nmol/s by the number of nmoles of HPPD enzyme (based on the concentration determined by active-site titration).
For the alternative assumption of one active site per monomer then calculated kcat values should simply be correspondingly and systematically halved.

[7] = Kd of inhibitor over Km HPP of SEQ ID NO: 1
[8] = 25° C., read-out: Off rate k1 / koff (average or final estimate)
[9] = 25° C., individual measurements, read-out: Off rate k1, individual experiments
[10] = 25° C., individual measurements

`CCOc1c(S(C)(=O)=O)ccc(C(=O)C2C(=O)CC(C)CC2=O)c1Cl` (stereo not shown) [Compound A] was tested, and the Kd/Km ratio [1, 7] was 0.000036.

For `CS(=O)(=O)c1ccc(C(=O)C2C(=O)CCCC2=O)c([N+](=O)[O-])c1` [Compound B, mesotrione], the “Events exhibiting < or equal to 10% damage” value ([2]; 600 g/ha mesotrione) was “Five out of 33”.

Work on `COCCOCc1nc(C(F)(F)F)ccc1C(=O)C1C(=O)C2CCC(C2)C1=O` (stereo not shown) [Compound C] yielded a Kd [1] of 7.1 nM, a koff [1, 8] of 5.3e-05 s⁻¹ and a koff [1, 9] of 5.67e-05 s⁻¹. For the same molecule, the Kd/Km ratio [1, 7] was 0.0013.

`CS(=O)(=O)c1cc(C(F)(F)F)ccc1C(=O)C(C#N)C(=O)C1CC1` (stereo not shown) [Compound D] was tested, and the kon [3] was 57000 M⁻¹ s⁻¹, the Kd [1] was 1.36 nM and the koff [1, 8] was 4.39e-05 s⁻¹. For the same molecule, the koff [1, 9] was 4.5e-05 s⁻¹ and the Kd/Km ratio [1, 7] was 0.00025.

With `CS(=O)(=O)c1ccc(C(=O)C2C(=O)CCCC2=O)c(Cl)c1COCC(F)(F)F` [Compound E] the Kd [1] was 0.228 nM, the Kd/Km ratio [1] was 0.000042 and the “Off rate k1, individual experiments” value [1, 10] was 2.02E-05 s^−1 and 3.00E-05 s^−1 and 3.67E-05 s^−1 and 3.17E-05 s^−1 (2×) and 2.67E-05 s^−1 (2×) and 3.33E- 05 s^−1. For the same molecule, the koff ([1]; read-out: Off rate k1, individual experiments, 25° C., individual measurements) was 3.08e-05 s⁻¹.

With `Cc1c(C(=O)C2C=NN(C)C2=O)ccc(S(C)(=O)=O)c1C1=NOCC1` (stereo not shown) [Compound F] the koff [1, 8] was 6.72e-05 s⁻¹, the “Off rate k1, individual experiments” value [1, 10] was 6e-05 s⁻¹ and 7e-05 s⁻¹ and 6.83e-05 s⁻¹ and the koff [1, 9] was 7.08e-05 s⁻¹.

In the case of `CS(=O)(=O)c1cc(C(F)(F)F)ccc1C(=O)c1cnoc1C1CC1` [isoxaflutole], the Bleaching [4] is reported as “Full”, the Bleaching ([2]; 600 g/ha isoxaflutole) is reported as “Full and Green and Partly” and the “Events showing less than 20% damage” value ([2]; 600 g/ha isoxaflutole) is reported as 3/33. The Bleaching [5] was “Full and Partly” and the “Plants showing 50% damage or less” value [5] was 4/32.

B1: SEQ ID NO: 1: the HPPD amino acid sequence of Avena sativa (protein, listed as Avena sativa)
chain: MPPTPATATGAAAAAVTPEHAARSFPRVVRVNPRSDRFPVLSFHHVELWCADAASAAGRFSFALGAPLAARSDLSTGNSAHASLLLRSGALAFLFTAPYAPPPQEAATAATASIPSFSADAARTFAAAHGLAVRSVGVRVADAAEAFRVSVAGGARPAFAPADLGHGFGLAEVELYGDVVLRFVSYPDETDLPFLPGFERVSSPGAVDYGLTRFDHVVGNVPEMAPVIDYMKGFLGFHEFAEFTAEDVGTTESGLNSVVLANNSEAVLLPLNEPVHGTKRRSQIQTYLEYHGGPGVQHIALASNDVLRTLREMRARTPMGGFEFMAPPQAKYYEGVRRIAGDVLSEEQIKECQELGVLVDRDDQGVLLQIFTKPVGDRPTFFLEMIQRIGCMEKDEVGQEYQKGGCGGFGKGNFSELFKSIEDYEKSLEVKQSVVAQKS
With B1 the Km ([6]; pH 7.0) was 5.38 µM and the kcat average ([6]; one active-site per dimer assumed) was 6.46 s⁻¹.
